Converted amounts (≈) assume the structure as drawn.
How the values were obtained:
Assay in all cases: in vitro antibacterial evaluation, MIC by broth dilution
Format in all cases: cell-based
Enterococcus sp. = details: broth dilution, 18 hours at 35° C.
Description: (§1) Methods for in vitro Antibacterial Evaluation (Table 1)
(§2) The minimum inhibitory concentration (MIC), the lowest concentration of the antibiotic which inhibits growth of the test organism, is determined by the broth dilution method using Muller-Hinton II […] (Baltimore Biological Laboratories) following the recommendations of the National Committee for Clinical Laboratory Standards [Methods for dilution antimicrobial susceptibility tests for bacteria that grow aerobically, approved standard M7-A2, National Committee for Clinical Laboratory Standards, Villanova, Pa.].
(§3) An inoculum level of 5×10^5 CFU/mL, and a range of antibiotic concentrations (64-0.06 μg/mL) is used. […] The test organisms include a spectrum of Gram-positive bacteria comprised of Staphylococcus sp., Streptococcus sp. and Enterococcus sp. These organisms include recent clinical isolates that are resistant to methicillin, penicillin and/or vancomycin.

Streptococcus sp. = details: broth dilution, 18 hours at 35° C.
Description: as §1, §2, §3

Staphylococcus sp. = details: broth dilution, 18 hours at 35° C.
Description: as §1, §2, §3

Escherichia coli = details: 18 hours at 35° C.
Outline: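 MIC is the lowest antibiotic concentration (tested 64-0.06 μg/mL) preventing growth of a 5×10^5 CFU/mL inoculum. Determined by broth dilution in Mueller-Hinton II medium following NCCLS standard M7-A2.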

CC(C1CCCCC1)C1NC(=O)CNC(=O)C(CO)NC(=O)C(C(O)C2CNC(=N)N2C2OC(CO)C(O)C(O)C2O)NC(=O)C(C(O)C2CNC(=N)N2)NC(=O)C(C[C@H]2CC[C@H](O)CC2)NC1=O (stereo partly drawn) [Example 54a, Cyclo[3-(anti-4-hydroxycyclohexyl)alanyl-3-(2-iminoimidazolidin-4-yl)seoyl-3-(3-hexopyranosyl-2-iminoimidazolidin-4-yl)serylserylglycyl-3-cyclohexyl-2-aminobutanoyl]]
MIC Enterococcus avium (GC 4558) (Enterococcus sp.; Enterococcus avium (GC 4558)): 128 µg/mL (≈ 130 µM) | MIC Enterococcus faecalis (ATCC 29212) (Enterococcus sp.; Enterococcus faecalis (ATCC 29212)): >128 µg/mL | MIC Enterococcus faecalis (GC 4552) (Enterococcus sp.; Enterococcus faecalis (GC 4552)): >128 µg/mL | MIC Enterococcus faecalis (GC 4553) (Enterococcus sp.; Enterococcus faecalis (GC 4553)): >128 µg/mL | MIC Enterococcus faecalis (GC 4554) (Enterococcus sp.; Enterococcus faecalis (GC 4554)): >128 µg/mL | MIC Enterococcus faecalis (GC 6189) (Enterococcus sp.; Enterococcus faecalis (GC 6189)): >128 µg/mL | MIC Enterococcus faecium (GC 2243) (Enterococcus sp.; Enterococcus faecium (GC 2243)): >128 µg/mL | MIC Enterococcus faecium (GC 4556) (Enterococcus sp.; Enterococcus faecium (GC 4556)): >128 µg/mL | MIC Enterococcus faecium (GC 4557) (Enterococcus sp.; Enterococcus faecium (GC 4557)): 128 µg/mL (≈ 130 µM) | MIC Enterococcus avium (GC 4558) (Enterococcus sp.): 128 µg/mL (≈ 130 µM) | MIC Enterococcus faecalis (ATCC 29212) (Enterococcus sp.): >128 µg/mL | MIC Enterococcus faecalis (GC 2242) (Enterococcus sp.): >128 µg/mL | MIC Enterococcus faecalis (GC 2691) (Enterococcus sp.): >128 µg/mL | MIC Enterococcus faecalis (GC 3059) (Enterococcus sp.): >128 µg/mL | MIC Enterococcus faecalis (GC 4552) (Enterococcus sp.): >128 µg/mL | MIC Enterococcus faecalis (GC 4553) (Enterococcus sp.): >128 µg/mL | MIC Enterococcus faecalis (GC 4554) (Enterococcus sp.): >128 µg/mL | MIC Enterococcus faecalis (GC 6189) (Enterococcus sp.): >128 µg/mL | MIC Enterococcus faecium (GC 2243) (Enterococcus sp.): >128 µg/mL | MIC Enterococcus faecium (GC 4556) (Enterococcus sp.): >128 µg/mL | MIC Enterococcus faecium (GC 4557) (Enterococcus sp.): 128 µg/mL (≈ 130 µM) | MIC Enterococcus faecalis (GC 2242) (Enterococcus sp.; strain GC 2242): >128 µg/mL | MIC Enterococcus faecalis (GC 2691) (Enterococcus sp.; strain GC 2691): >128 µg/mL | MIC Enterococcus faecalis (GC 3059) (Enterococcus sp.; strain GC 3059): >128 µg/mL | MIC Streptococcus agalactiae (GC 4564) (Streptococcus sp.): >128 µg/mL | MIC Streptococcus pneumoniae (ATCC 6301) (Streptococcus sp.): >128 µg/mL | MIC Streptococcus pneumoniae (GC 1894) (Streptococcus sp.): 128 µg/mL (≈ 130 µM) | MIC Streptococcus pneumoniae (GC 4565) (Streptococcus sp.): >128 µg/mL | MIC Streptococcus pyogenes (GC 4563) (Streptococcus sp.): >128 µg/mL | MIC Streptococcus pneumoniae (ATCC 6301) (Streptococcus sp.; strain ATCC 6301): >128 µg/mL | MIC Streptococcus pneumoniae (GC 1894) (Streptococcus sp.; strain GC 1894): 128 µg/mL (≈ 130 µM) | MIC Streptococcus pyogenes (GC 4563) (Streptococcus sp.; strain GC 4563): >128 µg/mL | MIC Streptococcus agalactiae (GC 4564) (Streptococcus sp.; strain GC 4564): >128 µg/mL | MIC Streptococcus pneumoniae (GC 4565) (Streptococcus sp.; strain GC 4565): >128 µg/mL | MIC Staphylococcus aureus (ATCC 29213) (Staphylococcus sp.; strain ATCC 29213): >128 µg/mL | MIC Staphylococcus aureus (GC 1131) (Staphylococcus sp.; strain GC 1131): >128 µg/mL | MIC Staphylococcus aureus (GC 3051) (Staphylococcus sp.; strain GC 3051): >128 µg/mL | MIC Staphylococcus aureus (GC 3053) (Staphylococcus sp.; strain GC 3053): >128 µg/mL | MIC Staphylococcus aureus (GC 4541) (Staphylococcus sp.; strain GC 4541): >128 µg/mL | MIC Staphylococcus aureus (GC 4542) (Staphylococcus sp.; strain GC 4542): >128 µg/mL | MIC Staphylococcus aureus-SMITH (GC 4543) (Staphylococcus sp.; strain GC 4543): >128 µg/mL | MIC Staphylococcus aureus (GC 4544) (Staphylococcus sp.; strain GC 4544): >128 µg/mL | MIC Staphylococcus aureus (GC 4545) (Staphylococcus sp.; strain GC 4545): >128 µg/mL | MIC Staphylococcus haemolyticus (GC 4546) (Staphylococcus sp.; strain GC 4546): 128 µg/mL (≈ 130 µM) | MIC Coagulase Negative Staphylococcus (GC 4547) (Staphylococcus sp.; strain GC 4547): 128 µg/mL (≈ 130 µM) | MIC Coagulase Negative Staphylococcus (GC 4548) (Staphylococcus sp.; strain GC 4548): >128 µg/mL | MIC Coagulase Negative Staphylococcus (GC 4549) (Staphylococcus sp.; strain GC 4549): >128 µg/mL | MIC Coagulase Negative Staphylococcus (GC 4551) (Staphylococcus sp.; strain GC 4551): >128 µg/mL | MIC Escherichia coli (ATCC 25922) (Escherichia coli): >128 µg/mL | MIC Escherichia coli (GC 4559) (Escherichia coli): >128 µg/mL | MIC Escherichia coli (GC 4560) (Escherichia coli): >128 µg/mL

From patent publication US6914045B2, “Glycopeptide antibiotics” (Wyeth Holdings Corporation, priority 2001, dated 2005)
